The structures appear in SMILES notation. Where a name gives a salt, the structure may show the parent alone.

For 5 compounds, IC50 results are on record in patent US8318935B2, “Organic compounds 75074” (Novartis AG, priority 2007, dated 2012).

The assay concerns the target T1, epithelial sodium channel (ENaC) (Homo sapiens, UniProt P37088+P51168+P51170).
T1 construct: host or cells: primary Human Bronchial Epithelial cells (HBECs), air-liquid interface culture
T1 sequence (P37088 1-669): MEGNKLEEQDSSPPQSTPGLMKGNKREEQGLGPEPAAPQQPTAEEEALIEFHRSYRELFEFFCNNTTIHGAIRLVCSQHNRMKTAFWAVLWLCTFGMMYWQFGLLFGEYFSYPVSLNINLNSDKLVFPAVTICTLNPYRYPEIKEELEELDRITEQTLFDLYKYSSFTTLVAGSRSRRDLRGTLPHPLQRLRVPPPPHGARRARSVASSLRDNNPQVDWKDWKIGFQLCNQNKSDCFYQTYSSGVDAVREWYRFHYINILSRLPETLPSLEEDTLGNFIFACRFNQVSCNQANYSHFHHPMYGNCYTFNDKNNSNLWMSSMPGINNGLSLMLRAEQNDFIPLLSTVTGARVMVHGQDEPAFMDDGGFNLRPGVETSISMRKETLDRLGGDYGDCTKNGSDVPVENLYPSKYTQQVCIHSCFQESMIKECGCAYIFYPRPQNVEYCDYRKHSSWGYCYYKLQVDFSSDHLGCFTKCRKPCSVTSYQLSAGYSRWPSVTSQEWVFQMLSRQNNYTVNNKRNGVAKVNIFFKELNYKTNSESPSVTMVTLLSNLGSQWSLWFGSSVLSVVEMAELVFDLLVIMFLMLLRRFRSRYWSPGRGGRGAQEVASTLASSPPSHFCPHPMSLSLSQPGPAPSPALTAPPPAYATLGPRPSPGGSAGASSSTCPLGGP
T1 sequence (P51168 1-640): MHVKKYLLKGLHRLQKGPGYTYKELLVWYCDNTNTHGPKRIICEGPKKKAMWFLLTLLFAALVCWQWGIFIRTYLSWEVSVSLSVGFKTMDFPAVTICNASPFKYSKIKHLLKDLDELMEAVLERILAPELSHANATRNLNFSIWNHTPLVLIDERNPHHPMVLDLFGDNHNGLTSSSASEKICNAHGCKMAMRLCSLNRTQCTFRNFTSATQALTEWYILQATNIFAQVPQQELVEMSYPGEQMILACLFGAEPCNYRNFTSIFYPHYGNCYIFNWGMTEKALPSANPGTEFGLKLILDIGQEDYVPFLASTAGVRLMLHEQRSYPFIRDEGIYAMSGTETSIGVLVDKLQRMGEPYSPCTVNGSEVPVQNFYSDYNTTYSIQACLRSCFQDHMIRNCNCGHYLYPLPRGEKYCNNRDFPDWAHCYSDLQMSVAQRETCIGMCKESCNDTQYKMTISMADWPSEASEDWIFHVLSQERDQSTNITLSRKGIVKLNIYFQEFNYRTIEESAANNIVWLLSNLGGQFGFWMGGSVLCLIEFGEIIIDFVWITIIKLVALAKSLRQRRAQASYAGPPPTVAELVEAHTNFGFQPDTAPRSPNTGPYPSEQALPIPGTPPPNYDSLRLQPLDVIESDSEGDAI
T1 sequence (P51170 1-649): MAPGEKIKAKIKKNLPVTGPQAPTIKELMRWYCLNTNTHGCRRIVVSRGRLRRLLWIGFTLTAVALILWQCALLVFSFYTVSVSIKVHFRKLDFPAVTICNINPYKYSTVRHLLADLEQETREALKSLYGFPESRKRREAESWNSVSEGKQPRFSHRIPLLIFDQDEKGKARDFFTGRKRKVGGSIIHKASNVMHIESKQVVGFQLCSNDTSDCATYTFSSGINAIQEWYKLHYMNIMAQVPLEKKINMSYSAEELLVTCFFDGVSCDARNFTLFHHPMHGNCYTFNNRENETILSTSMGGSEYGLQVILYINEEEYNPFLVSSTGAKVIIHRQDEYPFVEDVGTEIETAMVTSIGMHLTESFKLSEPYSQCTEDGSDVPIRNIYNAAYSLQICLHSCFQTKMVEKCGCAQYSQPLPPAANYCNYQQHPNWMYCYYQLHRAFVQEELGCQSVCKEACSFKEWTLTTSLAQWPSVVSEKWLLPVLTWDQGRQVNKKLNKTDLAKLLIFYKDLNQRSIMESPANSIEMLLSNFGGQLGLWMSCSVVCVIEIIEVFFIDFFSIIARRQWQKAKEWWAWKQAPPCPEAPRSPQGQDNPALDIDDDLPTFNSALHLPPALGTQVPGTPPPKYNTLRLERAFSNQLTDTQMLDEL
As to the kind of experiment: Short circuit current (ISC) measurements in human bronchial epithelial cells: inhibition of the amiloride-sensitive ISC (ENaC blockade). The assay is classed as cell-based. The conditions noted are these: Human Bronchial Epithelial cells (HBECs) at air-liquid interface, Ussing chamber, compound added to apical chamber. On the procedure:
Human Bronchial Epithelial cells (HBECs) (Cambrex) were cultured under air-liquid interface conditions to provide a well differentiated mucociliary phenotype.
HBECs were cultured using a modification of the method described by Gray and colleagues (Gray et al., 1996). Cells were seeded in plastic T-162 flasks and were grown in bronchial epithelial cell growth medium (BEGM; Cambrex) supplemented with bovine pituitary extract (52 μg/ml), hydrocortisone (0.5 μg/ml), human recombinant epidermal growth factor (0.5 ng/ml), epinephrine (0.5 μg/ml), transferrin (10 μg/ml), insulin (5 μg/ml), retinoic acid (0.1 μg/ml), triiodothyronine ([…]), gentamycin (50 μg/ml) and amphotericin B (50 ng/ml). Medium was changed every 48 hours until cells were 90% confluent. Cells were then passaged and seeded (8.25×10^4 cells/insert) on polycarbonate Snapwell inserts (Costar) in differentiation media containing 50% DMEM in BEGM with the same supplements as above but without triiodothyronine and a final retinoic acid concentration of 50 nM (all-trans retinoic acid). Cells were maintained submerged for the first 7 days in culture, after which time they were exposed to an apical air interface for the remainder of the culture period. At this time, media was changed to DMEM:F12 media containing 2% v/v Ultroser G for the remainder of culture. Amphotericin B was removed from all media 3 feeds prior to use in the Ussing Chambers. Cells were used between days 7 and 21 after establishment of the apical-air interface. At all stages of culture, cells were maintained at 37° C. in 5% CO2 in an air incubator.
Short Circuit Current (ISC) Measurements
Snapwell inserts were mounted in Vertical Diffusion Chambers (Costar) and were bathed with continuously gassed Ringer solution (5% CO2 in O2; pH 7.4) maintained at 37° C. containing (in mM): 120 NaCl, 25 NaHCO3, 3.3 KH2PO4, 0.8 K2HPO4, 1.2 CaCl2, 1.2 MgCl2, and 10 glucose. The solution osmolarity was between 280 and 300 mOsmol/kg H2O for all physiological salt solutions used. Cells were voltage clamped to 0 mV (model EVC4000; WPI). RT was measured by applying a 1- or 2-mV pulse at 30-s intervals and calculating RT by Ohm's law. Data were recorded using a PowerLab workstation (ADInstruments).
Test compounds were prepared as a 10 mM stock solution in DMSO (95%). Serial 3-fold dilutions were freshly prepared in an appropriate vehicle (distilled H2O or Ringers solution). The initial concentration was added to the apical chamber as a 1000× concentrate in 5 μl, resulting in a final 1× concentration the 5 ml volume of the Ussing chamber. Subsequent additions of compound were added in a 3.3 μl volume of the 1000× serially diluted stock solution. At the completion of the concentration-response experiment, amiloride (10 μM) was added into the apical chamber to enable the total amiloride-sensitive current to be measured. An amiloride control IC50 was established at the start of each experiment.
Results are expressed as the mean % inhibition of the amiloride-sensitive ISC. Concentration-response curves were plotted and IC50 values generated using GraphPad Prism 3.02. Cell inserts were typically run in duplicate and the IC50 calculated on the mean % inhibition data.

`N=C(NC(=O)c1nc(Cl)c(N)nc1N)NC1CCN(C(=O)c2ccc(C(=O)N3CCC(NC(=N)NC(=O)c4nc(Cl)c(N)nc4N)CC3)cc2)CC1` [Example 4, N,N′-(1,1′-(1,4-phenylene)bis(oxomethylene)bis(piperidine-4,1-diyl))bis(azanediyl)bis(iminomethylene)bis(3,5-diamino-6-chloropyrazine-2-carboxamide)hydrochloride]: 10 nM corresponded to half-maximal inhibition (IC50).
Take `CCCCN(CCCC)CCCNc1nc(N2CCC(NC(=N)NC(=O)c3nc(Cl)c(N)nc3N)CC2)nc(N2CCC(NC(=N)NC(=O)c3nc(Cl)c(N)nc3N)CC2)n1` [Example 13, N,N′-(1,1′-(6-(3-(dibutylamino)propylamino)-1,3,5-triazine-2,4-diyl)bis(piperidine-4,1-diyl))bis(azanediyl)bis(iminomethylene)bis(3,5-diamino-6-chloropyrazine-2-carboxamide) trifluoroacetate]: half-maximal inhibition (IC50) required 1 nM.
`N/C(=N\C(=O)c1nc(Cl)c(N)nc1N)NC1CCN(C(=O)NCCCCNC(=O)N2CCC(N/C(N)=N/C(=O)c3nc(Cl)c(N)nc3N)CC2)CC1` [Example 23, N,N′-(1,1′-(Butane-1,4-diylbis(azanediyl))bis(oxomethylene)bis(piperidine-4,1-diyl))bis(azanediyl)bis(aminomethan-1-yl-1-ylidene)bis(3,5-diamino-6-chloropyrazine-2-carboxamide) hydrobromide] showed an IC50 of 1.6 nM.
Next, `N=C(NC(=O)c1nc(Cl)c(N)nc1N)NC1CCN(c2ncnc(N3CCC(NC(=N)NC(=O)c4nc(Cl)c(N)nc4N)CC3)n2)CC1` [Example 7, N,N′-(1,1′-(1,3,5-triazine-2,4-diyl)bis(piperidine-4,1-diyl))bis(azanediyl)bis(iminomethylene)bis(3,5-diamino-6-chloropyrazine-2-carboxamide)hydrochloride]: 6 nM.
Compound `N=C(NC(=O)c1nc(Cl)c(N)nc1N)NC1CCN(C(=O)Nc2ccc(NC(=O)N3CCC(NC(=N)NC(=O)c4nc(Cl)c(N)nc4N)CC3)cc2)CC1` [Example 2, N,N′-(1,1′-(1,4-phenylenebis(azanediyl))bis(oxomethylene)bis(piperidine-4,1-diyl))bis(azanediyl)bis(iminomethylene)bis(3,5-diamino-6-chloropyrazine-2-carboxamide)hydrobromide] returned an IC50 of 1.5 nM.

In general, IC50 refers to the concentration at which inhibition is half-maximal. Low values mean inhibition by little substance, high ones a need for much substance.
